# Measured values as given in patent US20040258620A1, “(Ethylene)-( propylene)-triaminepentaacetic acid derivatives, process for their production, and their use for the production of pharmaceutical agents” (priority 2001, published 2004).
# Where “and” joins values, the source holds several entries; their conditions need not be identical. Identical values can stand only once.
# How the values were obtained:
# [1] = Peak-to-peak line widths of the EPR band at 0.34 T; format: physicochemical; parameters: unit not given here
# Description: (§1) The Gd(EPTPA-bz-NO2) complex (Formula VII, Z is NO2) has been investigated by ^17O NMR, EPR and ^1H NMRD.
# [2] = Proton relaxivities (1H NMRD profiles) of Gd(EPTPA-bz-NO2); format: physicochemical
# Method: According to the ^17O chemical shifts, the complex has one inner sphere water molecule. […] The water exchange rate obtained for […]) is in the optimal range to attain high proton relaxivities. This property, together with the high thermodynamic stability, is a unique feature among Gd(III) chelates known so far and it makes […]) an ideal synthon to be attached to any rigid, slowly tumbling macromolecular agent. […] (bottom curve) and 25° C. (top curve).
# [3] = Variable temperature 17O NMR relaxation rates and chemical shifts of GdEPTPA-bz-NO2; format: physicochemical; settings: for ^17O NMR T1 / ^17O NMR T2 / ^17O NMR ν / ^17O NMR chemical shift Δw / ^17O NMR reduced chemical shift Δwr: C = 55.79 mM; for ^17O NMR T1 / ^17O NMR T2 / ^17O NMR ν: pH = 6.0; for ^17O NMR chemical shift Δw / ^17O NMR reduced chemical shift Δwr: pH = 6.0, reference = HClO4
# Description: as §1
# [4] = Simultaneous analysis of 17O NMR, EPR and NMRD data
# Description: The ^17O NMR, NMRD and EPR experimental data (points) and the fitted curves (lines) as obtained in a simultaneous analysis, according to the method of Powell et al., J. Am. Chem. Soc.
# [5] = cited from earlier work
smiles,measurement,setting,value
O=C([O-])CN(CCCN(CC(=O)[O-])CC(Cc1ccc([N+](=O)[O-])cc1)N(CC(=O)[O-])CC(=O)[O-])CC(=O)[O-].[Gd+3] (stereo not shown) [Gd(EPTPA-bz-NO2)],"ΔHpp, peak-to-peak line width of the EPR band",[1]; T 3 ° C.,363.25
same,"ΔHpp, peak-to-peak line width of the EPR band",[1]; T 23.5 ° C.,297.4
same,"ΔHpp, peak-to-peak line width of the EPR band",[1]; T 34.1 ° C.,286
same,"ΔHpp, peak-to-peak line width of the EPR band",[1]; T 40.3 ° C.,280.2
same,"ΔHpp, peak-to-peak line width of the EPR band",[1]; T 47.6 ° C.,283.15
same,"ΔHpp, peak-to-peak line width of the EPR band",[1]; T 56.3 ° C.,297.4
same,"ΔHpp, peak-to-peak line width of the EPR band",[1]; T 72.4 ° C.,326
same,Proton relaxivity,"[2]; 24.8° C., proton Larmor frequency 0.022 MHz",8.54 mM⁻¹ s⁻¹
same,Proton relaxivity,"[2]; 24.8° C., proton Larmor frequency 0.036 MHz",8.63 mM⁻¹ s⁻¹
same,Proton relaxivity,"[2]; 24.8° C., proton Larmor frequency 0.061 MHz",8.69 mM⁻¹ s⁻¹
same,Proton relaxivity,"[2]; 24.8° C., proton Larmor frequency 0.101 MHz",8.34 mM⁻¹ s⁻¹
same,Proton relaxivity,"[2]; 24.8° C., proton Larmor frequency 0.168 MHz",8.47 mM⁻¹ s⁻¹
same,Proton relaxivity,"[2]; 24.8° C., proton Larmor frequency 0.280 MHz",8.55 mM⁻¹ s⁻¹
same,Proton relaxivity,"[2]; 24.8° C., proton Larmor frequency 0.467 MHz",8.21 mM⁻¹ s⁻¹
same,Proton relaxivity,"[2]; 24.8° C., proton Larmor frequency 0.778 MHz",8.29 mM⁻¹ s⁻¹ and 8.39 mM⁻¹ s⁻¹
same,Proton relaxivity,"[2]; 24.8° C., proton Larmor frequency 2.159 MHz",7.41 mM⁻¹ s⁻¹
same,Proton relaxivity,"[2]; 24.8° C., proton Larmor frequency 3.598 MHz",7.23 mM⁻¹ s⁻¹
same,Proton relaxivity,"[2]; 24.8° C., proton Larmor frequency 5.999 MHz",6.33 mM⁻¹ s⁻¹
same,Proton relaxivity,"[2]; 24.8° C., proton Larmor frequency 9.998 MHz",5.56 mM⁻¹ s⁻¹
same,Proton relaxivity,"[2]; 24.8° C., proton Larmor frequency 12.001 MHz",5.47 mM⁻¹ s⁻¹
same,Proton relaxivity,"[2]; 24.8° C., proton Larmor frequency 14.002 MHz",5.15 mM⁻¹ s⁻¹
same,Proton relaxivity,"[2]; 24.8° C., proton Larmor frequency 16.000 MHz",4.98 mM⁻¹ s⁻¹
same,Proton relaxivity,"[2]; 24.8° C., proton Larmor frequency 18.002 MHz",4.91 mM⁻¹ s⁻¹
same,Proton relaxivity,"[2]; 24.8° C., proton Larmor frequency 20.001 MHz",4.73 mM⁻¹ s⁻¹
same,Proton relaxivity,"[2]; 37.3° C., proton Larmor frequency 0.022 MHz",6.47 mM⁻¹ s⁻¹
same,Proton relaxivity,"[2]; 37.3° C., proton Larmor frequency 0.036 MHz",6.56 mM⁻¹ s⁻¹
same,Proton relaxivity,"[2]; 37.3° C., proton Larmor frequency 0.061 MHz",6.44 mM⁻¹ s⁻¹
same,Proton relaxivity,"[2]; 37.3° C., proton Larmor frequency 0.101 MHz",6.90 mM⁻¹ s⁻¹
same,Proton relaxivity,"[2]; 37.3° C., proton Larmor frequency 0.168 MHz",6.55 mM⁻¹ s⁻¹
same,Proton relaxivity,"[2]; 37.3° C., proton Larmor frequency 0.280 MHz",6.57 mM⁻¹ s⁻¹
same,Proton relaxivity,"[2]; 37.3° C., proton Larmor frequency 0.467 MHz",6.49 mM⁻¹ s⁻¹
same,Proton relaxivity,"[2]; 37.3° C., proton Larmor frequency 0.778 MHz",6.19 mM⁻¹ s⁻¹ and 6.36 mM⁻¹ s⁻¹
same,Proton relaxivity,"[2]; 37.3° C., proton Larmor frequency 2.159 MHz",5.80 mM⁻¹ s⁻¹
same,Proton relaxivity,"[2]; 37.3° C., proton Larmor frequency 3.598 MHz",5.67 mM⁻¹ s⁻¹
same,Proton relaxivity,"[2]; 37.3° C., proton Larmor frequency 5.999 MHz",5.21 mM⁻¹ s⁻¹
same,Proton relaxivity,"[2]; 37.3° C., proton Larmor frequency 9.998 MHz",4.42 mM⁻¹ s⁻¹
same,Proton relaxivity,"[2]; 37.3° C., proton Larmor frequency 12.001 MHz",4.18 mM⁻¹ s⁻¹
same,Proton relaxivity,"[2]; 37.3° C., proton Larmor frequency 14.002 MHz",4.20 mM⁻¹ s⁻¹
same,Proton relaxivity,"[2]; 37.3° C., proton Larmor frequency 16.000 MHz",4.26 mM⁻¹ s⁻¹
same,Proton relaxivity,"[2]; 37.3° C., proton Larmor frequency 18.002 MHz",4.12 mM⁻¹ s⁻¹
same,^17O NMR T1,[3]; T 274.5 K,0.00301 s
same,^17O NMR T2,[3]; T 274.5 K,0.00135 s
same,^17O NMR ν,[3]; T 274.5 K,−3678.6 Hz
same,^17O NMR chemical shift Δw,[3]; T 274.5 K,−133.1 Hz
same,^17O NMR reduced chemical shift Δwr,[3]; T 274.5 K,−8.33E+05 Hz
same,^17O NMR T1,[3]; T 286.7 K,0.00428 s
same,^17O NMR T2,[3]; T 286.7 K,0.00167 s
same,^17O NMR ν,[3]; T 286.7 K,−3686.0 Hz
same,^17O NMR chemical shift Δw,[3]; T 286.7 K,−125.36 Hz
same,^17O NMR reduced chemical shift Δwr,[3]; T 286.7 K,−7.84E+05 Hz
same,^17O NMR T1,[3]; T 293.5 K,0.00513 s
same,^17O NMR T2,[3]; T 293.5 K,0.00198 s
same,^17O NMR ν,[3]; T 293.5 K,−3690.4 Hz
same,^17O NMR chemical shift Δw,[3]; T 293.5 K,−125.25 Hz
same,^17O NMR reduced chemical shift Δwr,[3]; T 293.5 K,−7.84E+05 Hz
same,^17O NMR T1,[3]; T 298.0 K,0.00599 s
same,^17O NMR T2,[3]; T 298.0 K,0.00263 s
same,^17O NMR ν,[3]; T 298.0 K,−3705.7 Hz
same,^17O NMR chemical shift Δw,[3]; T 298.0 K,−123.5 Hz
same,^17O NMR reduced chemical shift Δwr,[3]; T 298.0 K,−7.73E+05 Hz
same,^17O NMR T1,[3]; T 306.7 K,0.00734 s
same,^17O NMR T2,[3]; T 306.7 K,0.00263 s
same,^17O NMR ν,[3]; T 306.7 K,−3702.7 Hz
same,^17O NMR chemical shift Δw,[3]; T 306.7 K,−120.4 Hz
same,^17O NMR reduced chemical shift Δwr,[3]; T 306.7 K,−7.53E+05 Hz
same,^17O NMR T1,[3]; T 324.2 K,0.0104 s
same,^17O NMR T2,[3]; T 324.2 K,0.00425 s
same,^17O NMR ν,[3]; T 324.2 K,−3751.5 Hz
same,^17O NMR chemical shift Δw,[3]; T 324.2 K,−121.2 Hz
same,^17O NMR reduced chemical shift Δwr,[3]; T 324.2 K,−7.58E+05 Hz
same,^17O NMR T1,[3]; T 338.7 K,0.0137 s
same,^17O NMR T2,[3]; T 338.7 K,0.00616 s
same,^17O NMR ν,[3]; T 338.7 K,−3764.2 Hz
same,^17O NMR chemical shift Δw,[3]; T 338.7 K,−99.4 Hz
same,^17O NMR reduced chemical shift Δwr,[3]; T 338.7 K,−6.22E+05 Hz
same,^17O NMR T1,[3]; T 359.7 K,0.0189 s
same,^17O NMR T2,[3]; T 359.7 K,0.00967 s
same,^17O NMR ν,[3]; T 359.7 K,−3803.0 Hz
same,^17O NMR chemical shift Δw,[3]; T 359.7 K,−95.8 Hz
same,^17O NMR reduced chemical shift Δwr,[3]; T 359.7 K,−5.99E+05 Hz
same,inner sphere water molecules of the complex,[3]; according to the ^17O chemical shifts,one
same,water exchange rate kex^298,[4],1.4e+08 s⁻¹
same,"water exchange rate, times higher than that measured on Gd(DTPA)",[4]; relative to Gd(DTPA),40 times
"O=C([O-])CN(CCCN(CC(=O)[O-])CC(=O)[O-])CCN(CC(=O)[O-])CC(=O)[O-].[Gd+3] [Gd(III)(EPTPA), Gd(III) complex of 3,6,10-tri(carboxymethly)-3,6,10-triazadodecanedioic acid]","thermodynamic stability constant, logo","[5]; determined by potentiometry (Wang et al, Dalton, 1998)",22.77
O=C([O-])CN1CCCN(CC(=O)[O-])CCN(CC(=O)[O-])CCN(CC(=O)[O-])CC1.[Gd+3] [Gd(III)(TRITA)],"thermodynamic stability constant, logβ","[5]; determined by potentiometry [Clarke and Martell, Inorg. Chim, Acta, 1991]",19.2
